Some test systems named below: COLO 205; NCI-H23; OVCAR-3; OVCAR-8; TK-10; 786-0; OVCAR-4; CCRF-CEM; A549; SK-MEL-2; MDA-MB-435; UO-31; Hs-578T; MOLT-4; Malme-3M; U-251; NCI-H460; NCI-H522; DU-145.
Experiment in all cases: NCI anticancer screen, dose series, 48 h

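48-hour exposure; five concentrations; linearly interpolated endpoints. Abbreviation: GI50, concentration required for 50% inhibition of growth.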 Activity calls are given as the source filed them. Cut-off read from the data, not from the text of the source: active = GI50 up to about 1.1 µM and inactive = higher.

Take `N#Cc1cc(C#N)c(Cl)nc1N`: the GI50 with COLO 205, in the experiment on NCI-H23, in the experiment with OVCAR-3, in the experiment on OVCAR-8, with TK-10 and in the experiment on 786-0 was > 10 µM (inactive) throughout. For the same compound, the GI50 in the experiment on OVCAR-4 was > 10 µM (inactive); with CCRF-CEM, > 10 µM (inactive); in the experiment with A549 it was > 10 µM (inactive); in the experiment with SK-MEL-2, > 10 µM (inactive); with MDA-MB-435 it was > 10 µM (inactive); in the experiment on UO-31 it was 0.0323 µM (active). Further, the GI50 in the experiment on Hs-578T, in the experiment with MOLT-4, in the experiment with Malme-3M, in the experiment with U-251 and with NCI-H460 was > 10 µM (inactive) each time.
With `CS(=O)(=O)c1ccc(-c2cc(-c3ccc(S(C)(=O)=O)cc3)[n+](-c3cc(-c4ccc(S(C)(=O)=O)cc4)c([O-])c(-c4ccc(S(C)(=O)=O)cc4)c3)c(-c3ccc(S(C)(=O)=O)cc3)c2)cc1`, the GI50 with COLO 205, in the experiment with NCI-H23, in the experiment on OVCAR-3, with OVCAR-8, in the experiment on TK-10 and in the experiment with 786-0 was > 100 µM (inactive) each time. Also, the GI50 in the experiment on OVCAR-4, in the experiment on CCRF-CEM, in the experiment with A549, in the experiment with SK-MEL-2, in the experiment with UO-31 and in the experiment on NCI-H522 was > 100 µM (inactive) each time. Further, the GI50 in the experiment on MOLT-4, with Malme-3M, in the experiment on U-251 and with NCI-H460 was > 100 µM (inactive) in each case.
With `COC(=O)CCC12CCC(=O)C1[C@@H](C(=O)OC)C[C@H]2C(=O)OC` (stereo partly drawn), the GI50 in the experiment with COLO 205, with NCI-H23, with OVCAR-3, in the experiment with OVCAR-8, in the experiment with TK-10 and with 786-0 was > 100 µM (inactive) throughout. The GI50 in the experiment on OVCAR-4, with CCRF-CEM, in the experiment with A549, with SK-MEL-2, in the experiment with UO-31 and in the experiment with NCI-H522 was > 100 µM (inactive) each time. The GI50 in the experiment with MOLT-4, with Malme-3M, in the experiment with U-251 and in the experiment on NCI-H460 was > 100 µM (inactive) throughout.
Take `O=C1CC(c2ccccc2)n2cccc21` (stereo not drawn): the GI50 in the experiment with COLO 205, in the experiment with NCI-H23, with OVCAR-3, with OVCAR-8, in the experiment on TK-10 and in the experiment on 786-0 was > 100 µM (inactive) in each case. Also, the GI50 with OVCAR-4 is > 100 µM (inactive); with CCRF-CEM, > 100 µM (inactive); in the experiment with A549 it was > 100 µM (inactive); with SK-MEL-2, > 100 µM (inactive); in the experiment with MDA-MB-435 it was > 100 µM (inactive); in the experiment on UO-31, 67.6 µM (inactive). In addition, the GI50 with NCI-H522 is > 100 µM (inactive); in the experiment with Hs-578T, > 100 µM (inactive); with MOLT-4, > 10 µM (inactive); with DU-145, > 100 µM (inactive); in the experiment with U-251 it was > 100 µM (inactive).
As for `O=S(=O)(c1ccccc1)N1N=C2c3ccccc3CCC[C@H]2C1c1ccccc1` (stereo partly drawn), the GI50 with COLO 205, with NCI-H23, in the experiment with OVCAR-3, in the experiment on OVCAR-8, in the experiment with TK-10 and with 786-0 was > 100 µM (inactive) each time. In addition, the GI50 was > 100 µM (inactive) in the experiment on OVCAR-4; > 100 µM (inactive) in the experiment with CCRF-CEM; > 100 µM (inactive) in the experiment with A549; > 100 µM (inactive) in the experiment on SK-MEL-2; > 60.8 µM (inactive) with UO-31; > 100 µM (inactive) with NCI-H522. For the same compound, the GI50 in the experiment on MOLT-4 was > 87.7 µM (inactive); with Malme-3M, > 100 µM (inactive); with U-251 it was > 100 µM (inactive); in the experiment on NCI-H460, 98.6 µM (inactive).
As to `O=C(O)C1(C(=O)O)CC1`, the GI50 in the experiment on COLO 205, in the experiment with NCI-H23, with OVCAR-3, in the experiment with OVCAR-8, in the experiment on TK-10 and in the experiment on 786-0 was > 100 µM (inactive) each time. The GI50 in the experiment on OVCAR-4, with CCRF-CEM, with A549, with SK-MEL-2, in the experiment with UO-31 and in the experiment on NCI-H522 was > 100 µM (inactive) each time. The GI50 with MOLT-4, with Malme-3M, in the experiment on U-251 and with NCI-H460 was > 100 µM (inactive) throughout.
For `C#CCN(N=O)C(=O)ON1C(=O)CCC1=O`, the GI50 with COLO 205, in the experiment with NCI-H23, in the experiment with OVCAR-3, in the experiment with OVCAR-8, in the experiment on TK-10 and in the experiment with 786-0 was > 100 µM (inactive) in each case. Besides, the GI50 in the experiment with OVCAR-4, in the experiment on CCRF-CEM, in the experiment with A549, in the experiment with SK-MEL-2, in the experiment on UO-31 and with NCI-H522 was > 100 µM (inactive) throughout. Moreover, the GI50 with MOLT-4 was > 100 µM (inactive); in the experiment with Malme-3M, > 100 µM (inactive); in the experiment on U-251 it was 74.8 µM (inactive); with NCI-H460, > 100 µM (inactive).
As for `O=C1Nc2ccc(Cl)c(I)c2C1=O`, the GI50 was 18.7 µM (inactive) in the experiment with COLO 205; 18.9 µM (inactive) in the experiment with NCI-H23; 21.1 µM (inactive) in the experiment on OVCAR-3; 18.7 µM (inactive) with OVCAR-8; 38.5 µM (inactive) in the experiment on TK-10; 19.7 µM (inactive) in the experiment with 786-0. Also, the GI50 in the experiment with OVCAR-4 was 18.1 µM (inactive); with CCRF-CEM it was 15.4 µM (inactive); with A549, 44.7 µM (inactive); in the experiment with SK-MEL-2, 18.7 µM (inactive); in the experiment with UO-31, 17.7 µM (inactive); with NCI-H522 it was 17.2 µM (inactive). The GI50 with MOLT-4 is 22.9 µM (inactive); in the experiment on Malme-3M it was 20.2 µM (inactive); in the experiment with U-251, 17.2 µM (inactive); in the experiment on NCI-H460, 21.2 µM (inactive).
`Cc1nc2cc(Nc3ccccc3C(=O)O)ccc2s1`: the GI50 with COLO 205, in the experiment on NCI-H23, in the experiment on OVCAR-3, with OVCAR-8, with TK-10 and with 786-0 was > 100 µM (inactive) throughout. In addition, the GI50 in the experiment on OVCAR-4 was > 100 µM (inactive); in the experiment with CCRF-CEM, > 100 µM (inactive); in the experiment on A549, > 100 µM (inactive); with SK-MEL-2, > 100 µM (inactive); in the experiment with UO-31 it was 34 µM (inactive); in the experiment with NCI-H522 it was 75 µM (inactive). Moreover, the GI50 with MOLT-4, in the experiment on Malme-3M, with U-251 and in the experiment on NCI-H460 was > 100 µM (inactive) in each case.
For `CC(=O)OC[C@@]12CC[C@H]3C(C)(C)CCC[C@]3(C)[C@H]1C[C@@H](C1=CC(=O)O[C@H]1O)O2`, the GI50 with COLO 205 is 3.81 µM (inactive); in the experiment with NCI-H23, 2.04 µM (inactive); in the experiment with OVCAR-3, 2.1 µM (inactive); with OVCAR-8, 3.18 µM (inactive); in the experiment with TK-10 it was 3.94 µM (inactive); with 786-0, 1.8 µM (inactive). In addition, the GI50 with CCRF-CEM was 1.24 µM (inactive); with A549, 6.97 µM (inactive); in the experiment on SK-MEL-2, 2.15 µM (inactive); in the experiment with MDA-MB-435 it was 2.13 µM (inactive); in the experiment with UO-31, 2.1 µM (inactive); with NCI-H522 it was 1.62 µM (inactive). For the same compound, the GI50 is 4.9 µM (inactive) with Hs-578T, 1.36 µM (inactive) in the experiment with MOLT-4, 7.29 µM (inactive) in the experiment on DU-145 and 8.69 µM (inactive) with NCI-H460.
For `Oc1ccc(O)c(-n2cccn2)c1-n1cccn1`, the GI50 is 30.5 µM (inactive) with COLO 205; > 100 µM (inactive) in the experiment on NCI-H23; > 100 µM (inactive) in the experiment on OVCAR-3; > 100 µM (inactive) with OVCAR-8; > 100 µM (inactive) in the experiment on TK-10; > 100 µM (inactive) with 786-0. For the same compound, the GI50 in the experiment on OVCAR-4 is > 100 µM (inactive); with CCRF-CEM, > 10 µM (inactive); in the experiment with A549, > 100 µM (inactive); in the experiment on SK-MEL-2, > 100 µM (inactive); in the experiment with UO-31, > 100 µM (inactive); with NCI-H522, 25.7 µM (inactive). Besides, the GI50 was > 10 µM (inactive) in the experiment with MOLT-4, > 100 µM (inactive) in the experiment with Malme-3M, > 100 µM (inactive) in the experiment with U-251 and > 100 µM (inactive) in the experiment with NCI-H460.
Consider `CCOC(=O)CC(=O)N(c1ccc(OC)cc1)C(C(=O)OC)c1ccccc1` (stereo not drawn), for which the GI50 in the experiment with COLO 205, with NCI-H23, in the experiment on OVCAR-3, in the experiment on OVCAR-8, in the experiment on TK-10 and with 786-0 was > 100 µM (inactive) each time. Further, the GI50 in the experiment with CCRF-CEM was > 100 µM (inactive); in the experiment on A549, > 100 µM (inactive); in the experiment on SK-MEL-2 it was > 100 µM (inactive); in the experiment on MDA-MB-435 it was > 100 µM (inactive); with UO-31, 96.2 µM (inactive); with NCI-H522, > 100 µM (inactive). The GI50 in the experiment on Hs-578T, with DU-145 and in the experiment with NCI-H460 was > 100 µM (inactive) each time.

For the origin of these results see ChEMBL document CHEMBL1201862, “PubChem BioAssay data set” (2004).
